Reference: US20210145850A1, “COMPOSITION, FOR OSTEOARTHRITIS TREATMENT, COMPRISING HYDROPHILIZED SULFASALAZINE AND HYALURONIC ACID AND METHOD FOR PREPARING SAME” (BMI KOREA CO., LTD, priority 2015, published 2021)

How the values were obtained:
[1] = taken orally, maximum dose of 4 g/day; cited from earlier work
[2] = system: osteoarthritis animal model induced by 1 mg MIA (Monosodium IodoAcetate) in synovium; experiment: In vivo anti-osteoarthritis efficacy test, X-ray of joint region; design: species or system rat (Sprague Dawley)
Protocol: FIG. 4 is X-ray radiographs of osteoarthritis animal model (rat) induced by treating 1 mg MIA in synovium at 8 weeks after administering the osteoarthritis composition comprising hydrophilized sulfasalazine and hyaluronic acid according to the present invention of 0 to 8 mM. After inducing an osteoarthritis animal model by treating 1 mg MIA (Monosodium IodoAcetate) to synovium of 8 week-old rat (Sprague Dawley), after 1 week, mixtures prepared in Example 1 was administered by intraarticular injection.

[3] = as component of synovial fluid; cited from earlier work

Compound | blood concentration [1] | anti-osteoarthritis effect ([2]; less than 2 mM (0.08 w/v %)) | osteoarthritis treatment effect ([2]; low concentration, for example 1 mM) | half life [3]
O=C(O)c1cc(/N=N/c2ccc(S(=O)(=O)Nc3ccccn3)cc2)ccc1O [sulfasalazine] | 12000 ng/mL | anti-osteoarthritis effect could not be shown | could not show an effective level of osteoarthritis treatment effect | 
hyaluronic acid |  |  |  | more than 13 hours
